Source: the supplement of paper PMC10307832

Tests used:
Assay in all cases: relative viability (nuclei count vs DMSO), 5 days (fraction); higher = more cells survive
[1] = compound: C1/C(=C\C2=CC=CS2)/C(=O)/C(=C/C3=CC=CS3)/C1 + Cc1cc(Nc2cc(N3CCN(C)CC3)nc(Sc3ccc(NC(=O)C4CC4)cc3)n2)n[nH]1 [Tozasertib] (partner 0.1 µM)
Procedure, shortened: (§1)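 Dosing by pin tool came one day after lung cancer cell lines were seeded in 1536-well plates, using either one drug or a fixed anchor-drug dose plus five library-drug doses (not always all listed) in √10 steps. After 5 days, nuclei were counted on 4× images. Relative viability is treated-well nuclei count divided by vehicle-well nuclei count, and values are medians of duplicate plates.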

TPCA-1 + Trametinib = compound: C1=CC(=CC=C1C2=CC(=C(S2)NC(=O)N)C(=O)N)F [TPCA-1] + CC(=O)Nc1cccc(-n2c(=O)n(C3CC3)c(=O)c3c(Nc4ccc(I)cc4F)n(C)c(=O)c(C)c32)c1 [Trametinib] (partner 0.02 µM)
Procedure, shortened: as §1

TPCA-1 + Pemetrexed = compound: C1=CC(=CC=C1C2=CC(=C(S2)NC(=O)N)C(=O)N)F [TPCA-1] + Nc1nc2[nH]cc(CCc3ccc(C(=O)N[C@@H](CCC(=O)O)C(=O)O)cc3)c2c(=O)[nH]1 [Pemetrexed] (partner 0.2 µM)
Procedure, shortened: as §1

Lestaurtinib + Dasatinib = compound: C[C@]12O[C@H](C[C@]1(O)CO)n1c3ccccc3c3c4c(c5c6ccccc6n2c5c31)CNC4=O [Lestaurtinib] + Cc1nc(Nc2ncc(C(=O)Nc3c(C)cccc3Cl)s2)cc(N2CCN(CCO)CC2)n1 [Dasatinib] (partner 0.075 µM)
Procedure, shortened: as §1

| Cell Line | relative viability ([1]; first compound 0.2 µM) | relative viability ([1]; first compound 0.6325 µM) | relative viability ([1]; first compound 2 µM) | relative viability ([1]; first compound 6.325 µM) | relative viability ([1]; first compound 20 µM) | relative viability (TPCA-1 + Trametinib; first compound 0.04 µM) | relative viability (TPCA-1 + Trametinib; first compound 0.4 µM) | relative viability (TPCA-1 + Trametinib; first compound 1.265 µM) | relative viability (TPCA-1 + Trametinib; first compound 4 µM) | relative viability (TPCA-1 + Pemetrexed; first compound 0.04 µM) | relative viability (TPCA-1 + Pemetrexed; first compound 0.4 µM) | relative viability (TPCA-1 + Pemetrexed; first compound 1.265 µM) | relative viability (TPCA-1 + Pemetrexed; first compound 4 µM) | relative viability (Lestaurtinib + Dasatinib; first compound 0.005 µM) | relative viability (Lestaurtinib + Dasatinib; first compound 0.01581 µM) | relative viability (Lestaurtinib + Dasatinib; first compound 0.05 µM) | relative viability (Lestaurtinib + Dasatinib; first compound 0.1581 µM) | relative viability (Lestaurtinib + Dasatinib; first compound 0.5 µM) | relative viability (TPCA-1 + Trametinib; first compound 0.1265 µM) | relative viability (TPCA-1 + Pemetrexed; first compound 0.1265 µM) |
| --- | --- | --- | --- | --- | --- | --- | --- | --- | --- | --- | --- | --- | --- | --- | --- | --- | --- | --- | --- | --- |
| EKVX | 0.405 | 0.452 | 0.329 | 0.424 | 0.394 | 0.507 | 0.376 | 0.216 | 0.313 | 0.43 | 0.343 | 0.329 | 0.375 | 0.477 | 0.735 | 0.562 | 0.576 | 0.373 |  |  |
| EMC-BAC-2 | 0.267 | 0.339 | 0.298 | 0.293 | 0.48 | 0.869 | 0.979 | 0.742 | 0.906 | 0.422 | 0.466 | 0.436 | 0.484 | 0.291 | 0.2 | 0.255 | 0.25 | 0.19 | 0.811 | 0.472 |
| EPLC-272H | 0.293 | 0.325 | 0.322 | 0.283 | 0.287 | 0.324 | 0.329 | 0.332 | 0.265 | 0.287 | 0.371 | 0.359 | 0.266 | 0.282 | 0.301 | 0.169 | 0.187 | 0.125 | 0.22 | 0.331 |
| H3255 | 0.714 | 0.617 | 0.566 | 0.537 | 0.546 | 0.728 | 0.62 | 0.596 | 0.519 | 0.577 | 0.58 | 0.484 | 0.493 | 0.291 | 0.428 | 0.299 | 0.342 | 0.323 | 0.545 | 0.487 |
| HARA | 0.121 | 0.123 | 0.116 | 0.101 | 0.0981 | 0.8 | 0.7 | 0.63 | 0.677 | 0.242 | 0.226 | 0.198 | 0.223 | 0.27 | 0.3 | 0.21 | 0.261 | 0.238 | 1.11 | 0.226 |
| HCC-15 | 0.422 | 0.497 | 0.367 | 0.397 | 0.357 | 0.402 | 0.347 | 0.346 | 0.311 | 0.222 | 0.224 | 0.238 | 0.22 | 0.73 | 0.702 | 0.485 | 0.38 | 0.169 | 0.372 | 0.227 |
| HCC-44 | 1.04 | 0.609 | 0.928 | 0.837 | 0.923 | 1.09 | 1.09 | 0.914 | 1.02 | 0.617 | 0.575 | 0.627 | 0.595 |  |  |  |  |  | 0.983 | 0.657 |
| HCC-78 | 0.423 | 0.593 | 0.45 | 0.37 | 0.454 | 0.837 | 0.722 | 0.78 | 0.519 | 0.919 | 0.932 | 0.885 | 0.9 | 0.341 | 0.669 | 0.294 | 0.25 | 0.218 | 0.677 | 0.911 |
